The source of these data is BindingDB's records for doi:10.1111/cbdd.12546 (Zhejiang University of Technology, 2015).

Chain of Glycogen synthase kinase-3 beta (P49841 whole entry): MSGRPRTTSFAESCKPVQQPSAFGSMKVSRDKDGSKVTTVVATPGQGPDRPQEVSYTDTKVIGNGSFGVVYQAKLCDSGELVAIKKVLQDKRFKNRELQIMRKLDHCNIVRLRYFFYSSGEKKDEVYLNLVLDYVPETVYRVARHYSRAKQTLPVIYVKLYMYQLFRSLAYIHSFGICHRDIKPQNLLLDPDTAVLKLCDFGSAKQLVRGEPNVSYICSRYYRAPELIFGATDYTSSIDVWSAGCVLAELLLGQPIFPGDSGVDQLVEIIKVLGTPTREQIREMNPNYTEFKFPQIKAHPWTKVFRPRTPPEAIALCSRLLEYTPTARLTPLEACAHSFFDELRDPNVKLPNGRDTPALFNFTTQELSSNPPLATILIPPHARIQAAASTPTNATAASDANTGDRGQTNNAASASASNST

The test concerns the target Glycogen synthase kinase-3 beta (Homo sapiens, UniProt P49841). The test can be described thus: Kinase Assay.
In general, IC50 refers to the concentration that inhibits the measured activity by half. `O=C1NC(=O)C(c2cn(CCCn3ccnc3)c3ccccc23)=C1c1coc2ncccc12` [3-(1-(3-(1H-Imidazol-1-yl)propyl)-1H-indol-3-yl)-4-(furo[2,3-b]pyridin-3-yl)-1H-pyrrole-2,5-dione (5n)] returned an IC50 of 0.21 µM. The figure for `Cn1cc(C2=C(c3coc4ncccc34)C(=O)NC2=O)c2ccccc21` [3-(Furo[2,3-b]pyridin-3-yl)-4-(1-methyl-1H-indol-3-yl)-1H-pyrrole-2,5-dione (5b)] is 0.28 µM; for `Cn1cc(C2=C(c3coc4ncccc34)C(=O)NC2=O)c2ccc(Br)cc21` [3-(6-Bromo-1-methyl-1H-indol-3-yl)-4-(furo[2,3-b]pyridin-3-yl)-1H-pyrrole-2,5-dione (5i)] it is 1.94 µM; for `Cc1cccc2c(C3=C(c4coc5ncccc45)C(=O)NC3=O)cn(C)c12` [3-(1,7-dimethyl-1H-indol-3-yl)-4-(furo[2,3-b]pyridin-3-yl)-1H-pyrrole-2,5-dione (5c)] it is 0.29 µM.

Compound `O=C1NC(=O)C(c2cn(CCCn3ccnc3)c3ccc(Cl)cc23)=C1c1coc2ncccc12` [3-(1-(3-(1H-Imidazol-1-yl)propyl)-5-chloro-1H-indol-3-yl)-4-(furo[2,3-b]pyridin-3-yl)-1H-pyrrole-2,5-dione (5p)] returned an IC50 of 0.24 µM.

The compound `CCCCn1cc(C2=C(c3coc4ncccc34)C(=O)NC2=O)c2ccccc21` [3-(1-Butyl-1H-indol-3-yl)-4-(furo[2,3-b]pyridin-3-yl)-1H-pyrrole-2,5-dione (5l)] returned an IC50 of 0.57 µM. The result for `CC(C)n1cc(C2=C(c3coc4ncccc34)C(=O)NC2=O)c2ccccc21` [3-(Furo[2,3-b]pyridin-3-yl)-4-(1-isopropyl-1H-indol-3-yl)-1H-pyrrole-2,5-dione (5m)] reads 0.19 µM. The result for `Cn1cc(C2=C(c3coc4ncccc34)C(=O)NC2=O)c2ccc(F)cc21` [3-(6-Fluoro-1-methyl-1H-indol-3-yl)-4-(furo[2,3-b]pyridin-3-yl)-1H-pyrrole-2,5-dione (5e)] reads 0.56 µM. The figure for `Cn1cc(C2=C(c3coc4ncccc34)C(=O)NC2=O)c2ccc(Cl)cc21` [3-(6-Chloro-1-methyl-1H-indol-3-yl)-4-(furo[2,3-b]pyridin-3-yl)-1H-pyrrole-2,5-dione (5g)] is 1.84 µM; for `C=CCn1cc(C2=C(c3coc4ncccc34)C(=O)NC2=O)c2ccccc21` [3-(1-Allyl-1H-indol-3-yl)-4-(furo[2,3-b]pyridin-3-yl)-1H-pyrrole-2,5-dione (5k)] it is 0.53 µM. On to `Cn1cc(C2=C(c3coc4ncccc34)C(=O)NC2=O)c2cc(Cl)ccc21` [3-(5-Chloro-1-methyl-1H-indol-3-yl)-4-(furo[2,3-b]pyridin-3-yl)-1H-pyrrole-2,5-dione (5f)], for which the half-inhibitory concentration (IC50) amounted to 0.17 µM. This IC50 lies about 3.1-fold lower than the previous one. For the compound `COc1ccc2c(c1)c(C1=C(c3coc4ncccc34)C(=O)NC1=O)cn2C` [3-(Furo[2,3-b]pyridin-3-yl)-4-(5-methoxy-1-methyl-1H-indol-3-yl)-1H-pyrrole-2,5-dione (5j)], the IC50 is 1.31 µM. The result for `O=C1NC(=O)C(c2cn(CCCN3CCOCC3)c3ccccc23)=C1c1coc2ncccc12` [3-(Furo[2,3-b]pyridin-3-yl)-4-(1-(3-morpholinopropyl)-1H-indol-3-yl)-1H-pyrrole-2,5-dione (5r)] reads 0.69 µM. The result for `O=C1NC(=O)C(c2cn(CCCO)c3ccccc23)=C1c1coc2ncccc12` [3-(Furo[2,3-b]pyridin-3-yl)-4-(1-(3-hydroxypropyl)-1H-indol-3-yl)-1H-pyrrole-2,5-dione (5q)] reads 0.31 µM; that for `Cn1cc(C2=C(c3coc4ncccc34)C(=O)NC2=O)c2cc(Br)ccc21` [3-(5-Bromo-1-methyl-1H-indol-3-yl)-4-(furo[2,3-b]pyridin-3-yl)-1H-pyrrole-2,5-dione (5h)], 0.07 µM; that for `O=C1NC(=O)C(c2coc3ncccc23)=C1c1c[nH]c2ccccc12` [3-(Furo[2,3-b]pyridin-3-yl)-4-(1H-indol-3-yl)-1H-pyrrole-2,5-dione (5a)], 1.78 µM. `Cn1cc(C2=C(c3coc4ncccc34)C(=O)NC2=O)c2cc(F)ccc21` [3-(5-Fluoro-1-methyl-1H-indol-3-yl)-4-(furo[2,3-b]pyridin-3-yl)-1H-pyrrole-2,5-dione (5d)] gave a half-maximal inhibitory concentration (IC50) of 0.39 µM.

Take `O=C1NC(=O)C(c2cn(CCCn3ccnc3)c3ccc(Br)cc23)=C1c1coc2ncccc12` [3-(1-(3-(1H-Imidazol-1-yl)propyl)-5-bromo-1H-indol-3-yl)-4-(furo[2,3-b]pyridin-3-yl)-1H-pyrrole-2,5-dione (5o)]: the IC50 was 0.19 µM.
